Laboratory results: patent US8883963B2 (Cadila Healthcare Limited, priority 2007, dated 2014)
Non-standard residues stand in square brackets, D forms with d. Residues, ends and D or L forms follow the SMILES beside them. ξ: configuration not given here. ξBip(2'-Et-4'-OMe) = CCc1cc(OC)ccc1-c1ccc(CC(N)C(=O)O)cc1; ξNva(5-(3-Cl-Ph)) = NC(CCCc1cccc(Cl)c1)C(=O)O; Ac5c = NC1(C(=O)O)CCCC1

Tests used:
[1] = Stability in simulated gastric fluid; assay type: in vitro ADME; details: 2 μM peptidomimetic, simulated gastric fluid pH 1.5, 37° C.; for half-life at 2 μM: read-out: half-life (t1/2) when incubated with simulated gastric fluid
Method: (§1) Reactions were terminated by the addition of TFA/H2O (15 mL, 10% (v/v)). […] The column was equilibrated with TFA/H20, at a flow rate of 1 mL/min.

[2] = Stability in simulated intestinal fluid; assay type: in vitro ADME; details: 2 μM peptidomimetic, simulated intestinal fluid pH 7.5, 37° C.; for half-life at 2 μM: read-out: half-life (t1/2) when incubated with simulated intestinal fluid
Method: as §1

DPP IV = DPP IV (Homo sapiens, UniProt P27487); assay: Stability against DPP IV enzyme; assay type: in vitro ADME; details: 37° C.; for % degradation of peptidomimetics in 24 h when incubated with DPP-IV enzyme: 2 μM peptidomimetic; for half-life at 2 μM: DPP IV enzyme, pH 7.8, 2 μM peptidomimetic, read-out: half-life (t1/2) when incubated with DPP-IV enzyme
Chain of DPP IV (P27487 whole entry, species assumed): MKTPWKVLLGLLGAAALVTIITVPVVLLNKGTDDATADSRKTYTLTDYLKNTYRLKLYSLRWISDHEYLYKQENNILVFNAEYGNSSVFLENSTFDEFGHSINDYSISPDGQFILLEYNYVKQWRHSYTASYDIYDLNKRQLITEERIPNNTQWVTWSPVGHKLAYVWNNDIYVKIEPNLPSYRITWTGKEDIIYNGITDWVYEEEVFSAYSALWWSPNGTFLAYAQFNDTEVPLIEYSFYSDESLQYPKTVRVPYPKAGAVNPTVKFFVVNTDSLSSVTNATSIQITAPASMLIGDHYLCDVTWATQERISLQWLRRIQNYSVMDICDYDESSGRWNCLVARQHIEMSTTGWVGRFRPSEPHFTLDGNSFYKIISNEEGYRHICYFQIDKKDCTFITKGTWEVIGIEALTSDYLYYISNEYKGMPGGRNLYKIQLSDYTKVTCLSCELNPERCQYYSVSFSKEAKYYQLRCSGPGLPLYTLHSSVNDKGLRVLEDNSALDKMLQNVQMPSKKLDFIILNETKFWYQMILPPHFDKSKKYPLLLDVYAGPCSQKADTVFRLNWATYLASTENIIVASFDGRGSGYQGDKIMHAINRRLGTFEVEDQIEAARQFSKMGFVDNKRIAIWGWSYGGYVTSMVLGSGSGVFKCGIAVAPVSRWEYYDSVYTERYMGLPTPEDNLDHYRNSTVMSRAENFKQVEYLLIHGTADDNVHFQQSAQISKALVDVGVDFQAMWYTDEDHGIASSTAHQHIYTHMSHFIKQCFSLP
Method: as §1

[3] = tested on: RIN5F (Rat Insulinoma) cells; assay: In vitro glucose-dependent insulin secretion (RIN5F cell assay screening protocol); assay type: cell-based; details: 16.7 mM glucose load
[4] = Stability in human plasma; assay type: in vitro ADME; details: 2 μM peptidomimetic, pooled human plasma, 37° C.; for half-life at 2 μM: pH 7.8, read-out: half-life (t1/2) when incubated with human plasma
Method: as §1

human glucagon receptor = molecular target: T1, human glucagon receptor (Homo sapiens, UniProt P47871); assay: In vitro human glucagon antagonist activity (inhibition of cAMP production) in CHO/human glucagon R cells; assay type: cell-based; details: with saturated concentration of glucagon peptide
T1 construct: The full-length cDNA was cloned in pcDNA3.1 (Invitrogen); expressed in transfected cells
T1 sequence (P47871 26-477): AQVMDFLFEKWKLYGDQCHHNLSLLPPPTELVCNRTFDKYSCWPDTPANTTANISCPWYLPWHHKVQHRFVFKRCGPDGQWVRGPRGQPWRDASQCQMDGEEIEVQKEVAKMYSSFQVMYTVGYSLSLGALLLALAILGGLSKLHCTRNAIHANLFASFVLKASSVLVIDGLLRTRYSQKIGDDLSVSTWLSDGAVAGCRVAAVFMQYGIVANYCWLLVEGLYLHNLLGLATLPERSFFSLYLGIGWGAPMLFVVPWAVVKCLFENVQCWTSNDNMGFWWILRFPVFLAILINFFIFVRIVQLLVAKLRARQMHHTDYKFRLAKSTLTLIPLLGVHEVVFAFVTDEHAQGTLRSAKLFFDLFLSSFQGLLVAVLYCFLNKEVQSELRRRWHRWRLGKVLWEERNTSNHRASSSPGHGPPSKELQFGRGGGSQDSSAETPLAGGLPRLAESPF

[5] = Stability in liver microsomes; assay type: in vitro ADME; details: 2 μM peptidomimetic, human liver microsomes, 37° C.
Method: as §1

Human GLP-1 receptor = molecular target: T2, Human GLP-1 receptor (Homo sapiens, UniProt P43220); assay: In vitro Human GLP-1 R agonist activity (cyclic AMP determination) in CHO/human GLP1R cells; assay type: cell-based
T2 construct: The full-length cDNA was cloned in pcDNA3.1(+); expressed in transfected cells
T2 sequence (P43220 24-463): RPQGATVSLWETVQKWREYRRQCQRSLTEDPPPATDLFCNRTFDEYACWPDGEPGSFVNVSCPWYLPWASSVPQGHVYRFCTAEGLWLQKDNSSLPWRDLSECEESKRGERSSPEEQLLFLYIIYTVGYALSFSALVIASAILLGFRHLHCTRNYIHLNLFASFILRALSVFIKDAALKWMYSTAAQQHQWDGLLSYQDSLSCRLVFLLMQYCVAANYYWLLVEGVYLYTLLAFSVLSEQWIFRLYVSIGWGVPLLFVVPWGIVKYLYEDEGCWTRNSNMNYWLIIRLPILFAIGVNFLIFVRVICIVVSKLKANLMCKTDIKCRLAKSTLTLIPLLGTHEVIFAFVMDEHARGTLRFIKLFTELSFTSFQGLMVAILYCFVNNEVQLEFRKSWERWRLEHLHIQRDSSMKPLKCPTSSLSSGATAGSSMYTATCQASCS

SMILES | % degradation of peptidomimetics in 24 h when incubated with simulated gastric fluid [1] [%] | % degradation of peptidomimetics in 24 h when incubated with simulated intestinal fluid [2] [%] | % degradation of peptidomimetics in 24 h when incubated with DPP-IV enzyme (DPP IV) [%] | half-life at 2 μM (DPP IV) [h] | Insulin secretion ([3]; 0.1 nM test compd.) [pg/µg/h] | Insulin secretion ([3]; 1 nM test compd.) [pg/µg/h] | Insulin secretion ([3]; 10 nM test compd.) [pg/µg/h] | % degradation of peptidomimetics in 24 h when incubated with human plasma [4] [%] | half-life at 2 μM [4] [h] | Human Glucagon receptor antagonistic activity shown as inhibition of cAMP production of Glucagon peptide (human glucagon receptor; 1 nM test compound) [pmol/ml/μg prt] | Human Glucagon receptor antagonistic activity shown as inhibition of cAMP production of Glucagon peptide (human glucagon receptor; 10 nM test compound) [pmol/ml/μg prt] | Human Glucagon receptor antagonistic activity shown as inhibition of cAMP production of Glucagon peptide (human glucagon receptor; 100 nM test compound) [pmol/ml/μg prt] | Human Glucagon receptor antagonistic activity shown as inhibition of cAMP production of Glucagon peptide (human glucagon receptor; 1 μM test compound) [pmol/ml/μg prt] | Human Glucagon receptor antagonistic activity shown as inhibition of cAMP production of Glucagon peptide (human glucagon receptor; 10 μM test compound) [pmol/ml/μg prt] | % degradation of peptidomimetics in 24 h when incubated with liver microsomes [5] [%] | half-life at 2 μM [1] [h] | half-life at 2 μM [2] [h] | half-life (t1/2) when incubated with liver microsomes [5] | also measured
CCc1cc(OC)ccc1-c1ccc(CC(C(=O)N(C)C(CCCc2ccccc2)C(N)=O)N(C)C(=O)[C@H](CC(=O)O)NC(=O)[C@H](CO)NC(=O)[C@@H](NC(=O)C(C)(Cc2ccccc2F)NC(=O)[C@@H](NC(=O)CNC(=O)C(CCC#N)NC(=O)C(C)(C)NC(=O)[C@@H](N)Cc2c[nH]cn2)[C@H](C)O)[C@H](C)O)cc1 (single isomer, unassigned) [compound 142] | 13 | 50 | 77 | 9 | 12.9 ± 0.14 | 15.8 ± 0.13 | 29.9 ± 0.15 | 80 | 8 | 10 ± 0.03 | 8 ± 0.03 | 6 ± 0.22 | 2 ± 0.13 | 0 | 82 |  |  |  | half-life (t1/2) when incubated with simulated gastric fluid [1]: (8) h; half-life (t1/2) when incubated with simulated intestinal fluid [2]: (6) h; half-life at 2 μM ([5]; pH 7.8, read-out: half-life (t1/2) when incubated with liver microsomes): 1 h
CCc1cc(OC)ccc1-c1ccc(CC(NC(=O)[C@H](CC(=O)O)NC(=O)[C@H](CO)NC(=O)[C@@H](NC(=O)C(C)(Cc2ccccc2F)NC(=O)[C@@H](NC(=O)CNC(=O)C(CCC#N)NC(=O)C(C)(C)NC(=O)[C@H](Cc2c[nH]cn2)NC(C)=O)[C@@H](C)O)[C@@H](C)O)C(=O)NC(CCCc2ccccc2F)C(N)=O)cc1 (single isomer, unassigned) [compound 207] | 00 | 00 | 00 | > 24 |  |  |  | 00 | > 24 | 0 | 0 | 0 | 0 | 0 | 26 | > 24 | > 24 | (5) h | Human GLP-1 R activity (cAMP release), % activity with respect to control (Human GLP-1 receptor; 1 nM test compound): 40 ± 0.11%; Human GLP-1 R activity (cAMP release), % activity with respect to control (Human GLP-1 receptor; 10 nM test compound): 81 ± 0.09%; Human GLP-1 R activity (cAMP release), % activity with respect to control (Human GLP-1 receptor; 100 nM test compound): 89 ± 0.06%; Human GLP-1 R activity (cAMP release), % activity with respect to control (Human GLP-1 receptor; 1 μM test compound): 96 ± 0.14%; Human GLP-1 R activity (cAMP release), % activity with respect to control (Human GLP-1 receptor; 10 μM test compound): 99 ± 0.19%
CCc1cc(OC)ccc1-c1ccc(CC(NC(=O)[C@H](CC(=O)O)NC(=O)[C@H](CO)NC(=O)[C@@H](NC(=O)[C@H](Cc2ccccc2)NC(=O)[C@@H](NC(=O)CNC(=O)[C@H](CCC(N)=O)NC(=O)C2(NC(=O)[C@@H](N)Cc3c[nH]cn3)CCCC2)[C@@H](C)O)[C@@H](C)O)C(=O)NC(CCCc2cccc(Cl)c2)C(N)=O)cc1 (stereo partly drawn) [compound 27] (H-H[Ac5c]QGTFTSD[ξBip(2'-Et-4'-OMe)][ξNva(5-(3-Cl-Ph))]-NH2) | 00 | 00 | 00 | > 24 | 16.4 ± 0.12 | 22.7 ± 0.17 | 36.6 ± 0.05 | 00 | > 24 |  |  |  |  |  | 31 | > 24 | > 24 | (5) h | 
